Data reported in paper PMC6691788, “Design and synthesis of phthalazine-based compounds as potent anticancer agents with potential antiangiogenic activity via VEGFR-2 inhibition” (Journal of Enzyme Inhibition and Medicinal Chemistry, 2019).

Assays:
Assay in all cases: NCI 60 cell panel SRB screen
KM12 = format: cell-based; details: Homo sapiens
SR = format: cell-based; details: Homo sapiens
RPMI-8226 = format: cell-based; details: Homo sapiens
ACHN = format: cell-based; details: Homo sapiens
HS 578T = format: cell-based; details: Homo sapiens
UACC-257 = format: cell-based; details: Homo sapiens
CCRF-CEM = format: cell-based, human
HOP-62 = format: cell-based; details: Homo sapiens
MALME-3M = format: cell-based; details: Homo sapiens
HL-60(TB) = format: cell-based; details: Homo sapiens
786-0 = format: cell-based; details: Homo sapiens
SK-MEL-5 = format: cell-based; details: Homo sapiens
SN12C = format: cell-based; details: Homo sapiens
PC-3 = format: cell-based; details: Homo sapiens
NCI-H460 = format: cell-based; details: Homo sapiens
UACC-62 = format: cell-based
SK-OV-3 = format: cell-based; details: Homo sapiens
SW-620 = format: cell-based; details: Homo sapiens
HCT-116 = format: cell-based; details: Homo sapiens
U251 = format: cell-based; details: Homo sapiens, U-251
MDA-MB 231/ATCC = format: cell-based; details: Homo sapiens
SK-MEL-28 = format: cell-based; details: Homo sapiens
BT-549 = format: cell-based; details: Homo sapiens
NCI-H23 = format: cell-based; details: Homo sapiens
IGROV1 = format: cell-based; details: Homo sapiens, IGROV-1
[1] = 5 log dose, 48 h, read-out: LC50 (the source's name)
[2] = single dose 10 μM, read-out: percent cell growth promotion

In the case of `Clc1ccc(Nc2nnc(COc3ccccc3)c3ccccc23)cc1` [Compound 17a, N-(4-Chlorophenyl)-4-(phenoxymethyl)phthalazin-1-amine], the GI50 (KM12; KM12, 5 log dose) is reported as 2.65 µM, the IC (TGI) (KM12; KM12, 5 log dose) is reported as 7.72 µM and the CC50 (KM12; KM12, 5 log dose, 48 h, read-out: LC50 (the source's name)) is reported as 22.4 µM. The activity at 10 µM (KM12; KM12, single dose 10 μM, read-out: percent cell growth promotion) was 0.18%, the GI50 (SR; 5 log dose) was 1.23 µM and the IC (TGI) (SR; 5 log dose) was 11.2 µM. The CC50 (SR; [1]) was > 25 µM, the activity at 10 µM (SR; [2]) was -20.6% and the GI50 (RPMI-8226; RPMI-8226, 5 log dose) was 1.37 µM. The IC (TGI) (RPMI-8226; RPMI-8226, 5 log dose) was 6.96 µM, the CC50 (RPMI-8226; RPMI-8226, 5 log dose, 48 h, read-out: LC50 (the source's name)) was > 25 µM and the activity at 10 µM (RPMI-8226; RPMI-8226, single dose 10 μM, read-out: percent cell growth promotion) was -25.3%. For the same compound, the GI50 (ACHN; 5 log dose) was 2.35 µM, the IC (TGI) (ACHN; 5 log dose) was > 25 µM and the CC50 (ACHN; [1]) was > 25 µM. It also gave an activity at 10 µM (ACHN; [2]) of 3.37%, a GI50 (HS 578T; Hs-578T) of 2.58 µM and an IC (TGI) (HS 578T; Hs-578T, read-out: TGI) of 10.5 µM. For the same compound, the activity at 10 µM (HS 578T; Hs-578T, read-out: percent cell growth promotion) was 14.4%, the CC50 (HS 578T; HS 578T, 5 log dose, 48 h, read-out: LC50 (the source's name)) was > 25 µM and the GI50 (UACC-257; UACC-257) was 2.54 µM. For the same compound, the IC (TGI) (UACC-257; UACC-257, read-out: TGI) was 5.82 µM, the activity at 10 µM (UACC-257; UACC-257, read-out: percent cell growth promotion) was -24.9% and the CC50 (UACC-257; UACC-257, 5 log dose, 48 h, read-out: LC50 (the source's name)) was 13.4 µM. For the same compound, the TGI (CCRF-CEM; 5 log dose) was 14.2 µM, the GI50 (CCRF-CEM; Homo sapiens, 5 log dose) was 2.8 µM and the CC50 (CCRF-CEM; Homo sapiens, 5 log dose, 48 h, read-out: LC50 (the source's name)) was > 25 µM. The activity at 10 µM (CCRF-CEM; Homo sapiens, single dose 10 μM, read-out: percent cell growth promotion) was 1.06%, the GI50 (HOP-62; HOP-62, 5 log dose) was 2.51 µM and the IC (TGI) (HOP-62; HOP-62, 5 log dose) was 7.74 µM. The CC50 (HOP-62; HOP-62, 5 log dose, 48 h, read-out: LC50 (the source's name)) was 23.9 µM, the activity at 10 µM (HOP-62; HOP-62, single dose 10 μM, read-out: percent cell growth promotion) was 13.1% and the GI50 (MALME-3M; Malme-3M) was 1.38 µM. For the same compound, the IC (TGI) (MALME-3M; Malme-3M, read-out: TGI) was 7.3 µM, the activity at 10 µM (MALME-3M; Malme-3M, read-out: percent cell growth promotion) was -13.5% and the CC50 (MALME-3M; MALME-3M, 5 log dose, 48 h, read-out: LC50 (the source's name)) was 25 µM. The GI50 (HL-60(TB); 5 log dose) was 3.56 µM, the IC (TGI) (HL-60(TB); 5 log dose) was 11.9 µM and the CC50 (HL-60(TB); [1]) was > 25 µM. For the same compound, the activity at 10 µM (HL-60(TB); [2]) was -15.7%, the GI50 (786-0; 786-0, 5 log dose) was 2.6 µM and the IC (TGI) (786-0; 786-0, 5 log dose) was 8.11 µM. For the same compound, the CC50 (786-0; 786-0, 5 log dose, 48 h, read-out: LC50 (the source's name)) was > 25 µM, the activity at 10 µM (786-0; 786-0, single dose 10 μM, read-out: percent cell growth promotion) was 5.25% and the GI50 (SK-MEL-5; SK-MEL-5) was 1.08 µM. It also gave an IC (TGI) (SK-MEL-5; SK-MEL-5, read-out: TGI) of 4.56 µM, an activity at 10 µM (SK-MEL-5; SK-MEL-5, read-out: percent cell growth promotion) of -96.1% and a CC50 (SK-MEL-5; SK-MEL-5, 5 log dose, 48 h, read-out: LC50 (the source's name)) of 10.8 µM. For the same compound, the GI50 (SN12C; 5 log dose) was 2.12 µM, the IC (TGI) (SN12C; 5 log dose) was 8.07 µM and the CC50 (SN12C; [1]) was > 25 µM. The activity at 10 µM (SN12C; [2]) was 17%, the GI50 (PC-3; PC-3, 5 log dose) was 1.3 µM and the IC (TGI) (PC-3; PC-3, 5 log dose) was 10.1 µM. For the same compound, the CC50 (PC-3; PC-3, 5 log dose, 48 h, read-out: LC50 (the source's name)) was > 25 µM, the activity at 10 µM (PC-3; PC-3, single dose 10 μM, read-out: percent cell growth promotion) was -0.2% and the GI50 (NCI-H460; NCI-H460, 5 log dose) was 2.7 µM. The IC (TGI) (NCI-H460; NCI-H460, 5 log dose) was 7.12 µM, the LC50 (concentration causing 50% cell kill) (NCI-H460; NCI-H460, 5 log dose, 48 h) was 18.8 µM and the activity at 10 µM (NCI-H460; NCI-H460, single dose 10 μM, read-out: percent cell growth promotion) was 3.1%. For the same compound, the GI50 (UACC-62; Homo sapiens, UACC-62) was 1.24 µM, the activity at 10 µM (UACC-62; Homo sapiens, UACC-62, read-out: percent cell growth promotion) was -27.7% and the CC50 (UACC-62; Homo sapiens, UACC-62, 5 log dose, 48 h, read-out: LC50 (the source's name)) was 17.5 µM. For the same compound, the TGI (UACC-62; UACC-62, 5 log dose) was 5.69 µM, the GI50 (SK-OV-3; SK-OV-3, 5 log dose) was 2.38 µM and the IC (TGI) (SK-OV-3; SK-OV-3, 5 log dose) was 9.96 µM. For the same compound, the CC50 (SK-OV-3; SK-OV-3, 5 log dose, 48 h, read-out: LC50 (the source's name)) was > 25 µM, the activity at 10 µM (SK-OV-3; SK-OV-3, single dose 10 μM, read-out: percent cell growth promotion) was 9.17% and the GI50 (SW-620; SW-620, 5 log dose) was 2.86 µM. For the same compound, the IC (TGI) (SW-620; SW-620, 5 log dose) was 7.79 µM, the CC50 (SW-620; SW-620, 5 log dose, 48 h, read-out: LC50 (the source's name)) was 21.2 µM and the activity at 10 µM (SW-620; SW-620, single dose 10 μM, read-out: percent cell growth promotion) was 15.4%. The GI50 (HCT-116; HCT-116, 5 log dose) was 1.07 µM, the IC (TGI) (HCT-116; HCT-116, 5 log dose) was 4.83 µM and the LC50 (lethal concentration 50%) (HCT-116; HCT-116, 5 log dose, 48 h) was 13.1 µM. For the same compound, the activity at 10 µM (HCT-116; HCT-116, single dose 10 μM, read-out: percent cell growth promotion) was 1.21%, the GI50 (U251; U251, 5 log dose) was 1.24 µM and the IC (TGI) (U251; U251, 5 log dose) was 7.47 µM. For the same compound, the CC50 (U251; U251, 5 log dose, 48 h, read-out: LC50 (the source's name)) was 19.1 µM, the activity at 10 µM (U251; U251, single dose 10 μM, read-out: percent cell growth promotion) was -12.7% and the GI50 (MDA-MB 231/ATCC; MDA-MB-231) was 1.28 µM. It also gave an IC (TGI) (MDA-MB 231/ATCC; MDA-MB-231, read-out: TGI) of 6.9 µM, an activity at 10 µM (MDA-MB 231/ATCC; MDA-MB-231, read-out: percent cell growth promotion) of 11.4% and a CC50 (MDA-MB 231/ATCC; MDA-MB-231, MDA-MDA 231/ATCC, 5 log dose, 48 h, read-out: LC50 (the source's name)) of 24.8 µM. It also gave a GI50 (SK-MEL-28; SK-MEL-28) of 2.84 µM, an IC (TGI) (SK-MEL-28; SK-MEL-28, read-out: TGI) of 7.23 µM and an activity at 10 µM (SK-MEL-28; SK-MEL-28, read-out: percent cell growth promotion) of 4.73%. For the same compound, the CC50 (SK-MEL-28; SK-MEL-28, 5 log dose, 48 h, read-out: LC50 (the source's name)) was 18.4 µM, the GI50 (BT-549; BT-549) was 2.05 µM and the IC (TGI) (BT-549; BT-549, read-out: TGI) was 6.65 µM. The activity at 10 µM (BT-549; BT-549, read-out: percent cell growth promotion) was -9.97%, the CC50 (BT-549; BT-549, 5 log dose, 48 h, read-out: LC50 (the source's name)) was 19 µM and the GI50 (NCI-H23; NCI-H23, 5 log dose) was 1.56 µM. For the same compound, the IC (TGI) (NCI-H23; NCI-H23, 5 log dose) was 7.87 µM, the CC50 (NCI-H23; NCI-H23, 5 log dose, 48 h, read-out: LC50 (the source's name)) was > 25 µM and the activity at 10 µM (NCI-H23; NCI-H23, single dose 10 μM, read-out: percent cell growth promotion) was 4.18%. The GI50 (IGROV1; IGROV1, 5 log dose) was 1.14 µM, the IC (TGI) (IGROV1; IGROV1, 5 log dose) was 6.37 µM and the CC50 (IGROV1; IGROV1, 5 log dose, 48 h, read-out: LC50 (the source's name)) was > 25 µM. For the same compound, the activity at 10 µM (IGROV1; IGROV1, single dose 10 μM, read-out: percent cell growth promotion) was 16.1%.
